Measurements from patent publication US7256172B1, “Method of treatment and agents useful for same” (The University of Melbourne, priority 1998, dated 2007).
No end group written: not given here.

Legend:
mouse bronchial rings = conditions: for response of epithelium-intact bronchi: contracted to approximately 40% Fmax with carbachol; for response in presence of cyclooxygenase inhibitors: indomethacin (3 μM) or aspirin (100 μM)
Source text: (§1) The right and left main bronchi and their first order branches of specific pathogenfree (SPF) Balb/c mice (15–20 g; either sex), Hartley tricolour guinea-pigs (300–400 g; male) and Sprague-Dawley rats (200–350 g; either sex), all killed by either cervical dislocation or overdosed (i.p.) with sodium pentobarbitone, were cleared of surrounding connective tissue, nerves and blood vessels under a dissecting microscope and placed in cold, carbogenated (95% v/v O2,5% v/v CO2) Krebs solution (Kemp and Cocks, 1997). Human airway preparations (0.5–1 mm in external diameter) were dissected from lungs of cancer patients undergoing thoracotomy at The Royal Melbourne Hospital, Melbourne, Australia. The epithelium was removed from some bronchi either by mechanical abrasion of the luminal surface (guinea-pig) or by brief, gentle intraliminal flushing of the airways with Krebs containing 0.1% v/v Triton-X100 (mouse and rat). In each case, removal of the epithelium was verified histologically in 8 μm formalin-fixed, paraffin sections stained with haemotoxylin and eosin. Ring segments (approximately 2 mm long) of bronchi and bronchioles were mounted in Krebs (37° C.) on stainless steel wires (40 μm) in dual channel (5 ml) Mulvany-Halpern myographs (JP Trading, Aarhus, Denmark) to record changes in isometric force (Kemp and Cocks, 1997). After equilibration at a passive force between 0.2 g and 0.3 g, tissues were contracted to their maximum levels of active force (Fm.),) with acetylcholine (30 μM), thoroughly washed with Krebs and allowed to return to baseline. Various drugs or their vehicles were then added and 30 min later all tissues were contracted to approximately 40% Fmax with titrated concentrations of carbachol (10–500 nM). The L-type voltage-operated Ca^2+ channel inhibitor, nifedipine (0.3 μM) was added to all mouse and rat tissues after obtaining Fmax to control characteristic phasic contractile activity with carbachol.
If no response occurred the tissues were then exposed to cumulative concentrations of either SLIGRL—NH2 (SEQ ID NO:2) or SFLLRN—NH2 (SEQ ID NO:1) (0.1–30 μM).
(§2) Results are presented as mean±s.e mean and pEC50 (sensitivity) values were calculated by fitting concentration-response curves to a four parameter logistic function (Kemp and Cocks, 1997) using Graphpad Prism (version 2.0). Statistical comparison of mean pEC50 and maximum response (Rmax) values were compared by two-tailed unpaired Student's t-tests or one way analysis of variance (ANOVA) with Tukey-Kramer's t-tests for multiple comparisons. P<0.05 was accepted as significant. Unless specified, all averaged data are from n>5 experiments.
Mouse bronchus preparations were carefully mounted horizontally on fine (40 μm) stainless steel wires attached to the jaws of a Mulvany-Halpem myograph. After 60 min at 37° C., all rings were stretched to 0.5 g passive force, which had been determined in preliminary experiments to be optimal, and allowed to recover from that stretch for a further 30 min. Maximum contraction (Fmax) in each tissue was then determined with exogenously applied acetylcholine (ACh; 30 μM) followed by washout. A further 30 min equilibration time was allowed before the tissues were actively contracted to between 20% and 60% of their individual Fm.” values with titrated concentrations of carbachol (10–100 nM). […] In some cases, tissues were treated with a range of drugs prior to contraction to approximately […] Fmax. These included the cyclooxygenase inhibitors indomethacin and aspirin, the nitric oxide (NO) synthase inhibitor N′-nitro-L-(L-NOARG), the NO scavenger oxyhaemoglobin (Hb0), and the L-voltage-operated Cat' channel inhibitor nifedipine.
After an initial passive stretch to 0.5 g (Ti) and recovery, each ring was contracted with acetylcholine (Ach; 30 μM). The contraction was taken as the tissue maximum and referred to as Fmax.

mouse trachea = conditions: for increase in Isc in presence of indomethacin: cyclooxygenase inhibitor indomethacin; for change in Isc: luminally applied
Source text: Mice were killed by a lethal overdose of sodium pentobarbitone and the tracheae rapidly excised. The trachea was opened longitudinally through the ventral cartilage rings to make a fiat sheet. Each sheet of trachea was mounted between two perspex chambers so that the mucosal (luminal) and submucosal and bathed with warmed, oxygenated Krebs' solution, independently on each side. Electrodes in the chambers allowed recordings of transepithelial potential difference using an amplifier. The tissue was voltage clamped at 0 mV by passing a current from the amplifier via another set of electrodes in the chambers. The amount of current required to maintain voltage at 0 mV is defined as the short circuit current (Isc) and is conventionally used as a measure of all ionic fluxes across the preparation.
(§3) After an equilibration time of 30 min, compounds for testing and drugs to elucidate the mechanism of any changes in Isc to the test compounds were added to either side of the tracheal epithelium (ie to either bath). Compounds used for increasing Isc were PGE2, adenosine 5′-triphosphate (ATP), uridine 5′-triphosphate (UTP) and the PAR1-, PAR2- and PAR4-activating peptides, SFLLRN (SEQ ID NO:1) and SLIGRL (SEQ ID NO:2) and GYPGQY (SEQ ID NO:6), respectively. These stimulants were added cumulatively with controls for any time-dependent tachyphylaxis.

PAR1 = PAR1 (Homo sapiens, UniProt P25116); conditions: concentrations up to 1 mM, human platelets; cited from earlier work
Chain of PAR1 (P25116 22-425): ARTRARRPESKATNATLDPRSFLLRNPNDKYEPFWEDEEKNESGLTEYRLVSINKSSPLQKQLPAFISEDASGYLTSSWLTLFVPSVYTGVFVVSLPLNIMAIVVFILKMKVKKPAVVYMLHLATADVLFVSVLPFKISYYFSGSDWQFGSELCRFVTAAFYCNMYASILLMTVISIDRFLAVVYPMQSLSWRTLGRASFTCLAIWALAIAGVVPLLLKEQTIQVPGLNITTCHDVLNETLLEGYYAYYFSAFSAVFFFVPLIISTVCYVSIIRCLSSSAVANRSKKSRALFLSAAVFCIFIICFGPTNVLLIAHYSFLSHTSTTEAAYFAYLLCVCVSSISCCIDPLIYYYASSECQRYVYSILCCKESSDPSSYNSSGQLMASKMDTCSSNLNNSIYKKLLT

[1] = molecular target: guinea-pig protease activated receptor 2 (PAR2), in guinea-pig bronchus tissue (guinea-pig); experiment: cell-based or functional assay
[2] = molecular target: T1, mouse protease activated receptor 2 (PAR2), in mouse bronchus and trachea tissue (mouse) (UniProt P55086); experiment: cell-based or functional assay
T1 sequence (looked up): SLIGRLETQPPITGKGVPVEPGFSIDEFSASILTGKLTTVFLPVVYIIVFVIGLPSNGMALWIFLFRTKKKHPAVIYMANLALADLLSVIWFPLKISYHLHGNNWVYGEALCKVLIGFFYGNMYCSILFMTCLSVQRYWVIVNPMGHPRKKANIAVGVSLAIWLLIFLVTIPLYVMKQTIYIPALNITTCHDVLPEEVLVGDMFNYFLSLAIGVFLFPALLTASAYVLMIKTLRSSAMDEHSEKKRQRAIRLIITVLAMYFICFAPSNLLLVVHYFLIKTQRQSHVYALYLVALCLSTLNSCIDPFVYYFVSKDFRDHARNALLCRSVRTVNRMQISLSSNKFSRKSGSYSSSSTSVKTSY

[3] = molecular target: T2, rat protease activated receptor 2 (PAR2), in rat airway tissue (rat) (UniProt Q63645); experiment: cell-based or functional assay
T2 sequence (looked up): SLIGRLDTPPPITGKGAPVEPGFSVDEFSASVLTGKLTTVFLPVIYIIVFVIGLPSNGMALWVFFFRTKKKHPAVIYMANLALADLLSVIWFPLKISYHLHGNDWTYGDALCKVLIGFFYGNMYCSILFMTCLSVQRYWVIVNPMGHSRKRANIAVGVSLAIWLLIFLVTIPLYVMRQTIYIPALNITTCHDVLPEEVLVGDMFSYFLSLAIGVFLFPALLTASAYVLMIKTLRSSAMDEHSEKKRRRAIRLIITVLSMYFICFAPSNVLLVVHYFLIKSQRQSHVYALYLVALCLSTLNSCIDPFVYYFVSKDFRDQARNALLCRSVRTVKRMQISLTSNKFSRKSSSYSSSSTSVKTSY

guinea-pig taenia coli = conditions: apamin (100 μM)
Description: 2 cm strips of teania coil with intact Auerbach's plexus, but which had been stripped of the mucosa, were suspended in Kreb's solution under 1 g passive tension, and contracted with histamine (1 μM) to induce active tension.

[4] = molecular target: PAR1-like receptor ("atypical" thrombin receptor) of human coronary artery endothelial cells (human); experiment: cell-based or functional assay
[5] = molecular target: mouse protease activated receptor 1 (PAR1), in mouse bronchus and trachea tissue (mouse) (UniProt P30558); experiment: cell-based or functional assay
Chain of mouse protease activated receptor 1 (PAR1), in mouse bronchus and trachea tissue (mouse) (P30558 42-430): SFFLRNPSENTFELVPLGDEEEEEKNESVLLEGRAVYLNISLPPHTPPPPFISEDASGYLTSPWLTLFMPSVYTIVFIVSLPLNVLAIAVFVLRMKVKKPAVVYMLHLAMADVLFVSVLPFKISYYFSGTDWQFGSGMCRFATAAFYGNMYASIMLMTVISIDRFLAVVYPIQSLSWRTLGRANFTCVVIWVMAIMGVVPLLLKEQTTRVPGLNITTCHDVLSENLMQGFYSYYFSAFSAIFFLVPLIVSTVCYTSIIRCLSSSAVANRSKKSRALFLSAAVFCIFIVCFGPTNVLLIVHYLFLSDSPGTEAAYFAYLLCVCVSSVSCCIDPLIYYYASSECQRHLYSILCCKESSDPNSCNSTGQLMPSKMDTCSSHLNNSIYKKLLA

[6] = test system: isolated human bronchioles
Description: Small (500 μm) bronchioles were carefully dissected from discarded sections of human left lung which had been excised at surgery from two male lung cancer patients (Royal Melbourne Hospital, Melbourne, Australia).
Dissection of these bronchioles required a fine-dissecting microscope and an assistant to continually flood the preparation with cold oxygenated Krebs solution to remove air bubbles and keep the tissue viable. Bronchioles approximately 2 mm in length were then mounted on […] diameter stainless wires in a Krebs solution-filled myograph chamber, as described for the mouse bronchus preparation above.

monkey small bronchi = test system: monkey small bronchi
Source text: The experimental details are similar to those for the mouse isolated bronchi. Briefly, approximately 2 mm long rings of small bronchi were mounted on wire hooks. In each trace, half log concentrations are not depicted for clarity.

[7] = test system: human coronary artery rings; conditions: for relaxation after removal of the endothelium: endothelium-denuded; for maximum (Rmax % contraction reversal): endothelium-intact, control
[8] = test system: human bronchial epithelium; conditions: after amiloride
Description: Human airways were obtained from discarded sections of lungs of patients undergoing lobectomy operations at the Royal Melbourne Hospital, Melbourne, Australia usually for lung cancer. The dissection and set up were as described above for the mouse trachea.
as §3

rat isolated bronchi = test system: rat isolated bronchi
Source text: as §1
as §2, with “All cumulative responses (relaxations and contractions) were normalised as percentages of the initial level of active force to carbachol. Results” for “Results”

human distal colon = test system: human distal colon
Description: Human distal colon strips obtained at bowel resection were suspended at 1 g passive isometric force and contracted with substance P (30 μM) to maintain a steady level of active tension.

Which results are given for “prostaglandin E2 [PGE2, reference compound]”?
response of epithelium-intact bronchi (mouse bronchial rings): potent and maximum relaxation; relaxation after removal of the epithelium (mouse bronchial rings; epithelium removed with 0.1% v/v Triton X-100): could still sensitively relax; maximum relaxation (Rmax) (mouse bronchial rings; main bronchi with epithelium, % of initial force to carbachol): 100%; sensitivity (pEC50) (mouse bronchial rings; main bronchi with epithelium, contracted with carbachol): 8.2±0.1 −log M; increase in Isc in presence of indomethacin (mouse trachea): unaffected; change in Isc (mouse trachea): rapid initial rise in Isc usually followed by some degree of recovery until a steady plateau was reached

Which “activation of PAR1” value (PAR1) does the source give for SLIGKVD-NH2 here?
The value was “does not activate PAR1”.

With “SLIGRL-NH2 (mouse PAR2 tethered ligand sequence, PAR2 activating peptide)” as the molecule, how does the pEC50, epithelium-dependent relaxation of guinea-pig isolated bronchi [1] read?
Its pEC50, epithelium-dependent relaxation of guinea-pig isolated bronchi is 5.4 -log M.

What about the pEC50 (sensitivity), relaxation of carbachol-contracted mouse bronchial rings [2] of the same molecule?
The pEC50 (sensitivity), relaxation of carbachol-contracted mouse bronchial rings was 5.6 -log M.

And the pEC50, relaxation of first generation branches of the mouse main bronchi [2]?
Its pEC50, relaxation of first generation branches of the mouse main bronchi is 5.1 -log M.

What about the pEC50, epithelium-dependent relaxation of rat isolated bronchi [3] of the same molecule?
The pEC50, epithelium-dependent relaxation of rat isolated bronchi was 5.5 -log M.

And the pEC50, relaxation of rat bronchioles [3]?
The pEC50, relaxation of rat bronchioles was 5.1 -log M.

Which results are given for Nc1ncnc2c1ncn2[C@@H]1O[C@H](COP(=O)(O)OP(=O)(O)OP(=O)(O)O)[C@@H](O)[C@H]1O [ATP, adenosine 5′-triphosphate]?
relaxation in presence of apamin (guinea-pig taenia coli): no relaxation; increase in Isc in presence of indomethacin (mouse trachea): unaffected; change in Isc (mouse trachea): rapid initial rise in Isc usually followed by some degree of recovery until a steady plateau was reached

What does the source list for “SFLLRN-NH2 (human PAR1 tethered ligand sequence, thrombin receptor-activating peptide)”?
pEC50, relaxation of human coronary artery after desensitisation to thrombin and trypsin [4]: 6.4 -log M; pEC50, relaxation of human coronary artery, untreated tissue [4]: 7 -log M; pEC50, relaxation of precontracted human coronary artery segments [4]: 6.9 -log M; pEC50, relaxation of carbachol-contracted mouse bronchial rings [5]: 5.6 -log M; pEC50, relaxation of first generation branches of the mouse main bronchi [5]: 5.5 -log M

Which pEC50 (sensitivity), endothelium-dependent relaxation of U46619-contracted human coronary artery rings [4] does the source give for “trypsin (bovine pancreas, Worthington Biochem) (from UniProt P00760 24-246) (enzyme)” here?
Its pEC50 (sensitivity), endothelium-dependent relaxation of U46619-contracted human coronary artery rings is 1.7 log U/ml.

For trypsin, which “response of epithelium-intact bronchi” value (mouse bronchial rings) is on record?
Its value is “activity-dependent relaxation”.

What about the “response in presence of cyclooxygenase inhibitors” value (mouse bronchial rings) of the same molecule?
Its value is “blocked by indomethacin”.

And the “response of human bronchioles” value [6]?
Its value is “activity dependent relaxation that was reversed by indomethacin”.

And the “effect on monkey small bronchi” value (monkey small bronchi)?
Its value is “smooth muscle relaxing effects”.

What about the “relaxation after removal of the endothelium” value [7] of the same molecule?
The value was “abolished”.

And the “maximum (Rmax % contraction reversal)” value [7]?
Its value is 88.1±2.9%.

With “alpha-thrombin (bovine serum, Sigma) (from UniProt P00735 318-625) (enzyme)” as the molecule, how does the pEC50 (sensitivity), endothelium-dependent relaxation of U46619-contracted human coronary artery rings [4] read?
Its pEC50 (sensitivity), endothelium-dependent relaxation of U46619-contracted human coronary artery rings is 2.5 log U/ml.

Which “change in Isc” value [8] does the source give for SLIGKV-NH2 here?
Its value is “relatively poor response”.

What about the “effect on monkey small bronchi” value (monkey small bronchi) of the same molecule?
Its value is “smooth muscle relaxing effects”.

And the “maximum (Rmax % contraction reversal)” value [7]?
Its value is 39.9±11.0%.

Which results are given for thrombin?
response of epithelium-intact bronchi (mouse bronchial rings): only poor indomethacin sensitive relaxation at high concentrations; response in presence of cyclooxygenase inhibitors (mouse bronchial rings): converted to contractions by indomethacin; response of rat bronchial rings (rat isolated bronchi): small relaxation; response of human bronchioles [6]: activity dependent relaxation that was reversed by indomethacin; response of human distal colon (human distal colon): did not result in relaxation; effect on monkey small bronchi (monkey small bronchi): smooth muscle relaxing effects; relaxation after removal of the endothelium [7]: abolished; maximum (Rmax % contraction reversal) [7]: 88.9±4.9%
